In patent publication US20140378474A1, “5-membered heteroarylcarboxamide derivatives as plasma kallikrein inhibitors” (NOVARTIS AG, priority 2012, published 2014) one finds IC50 data, which are given here for seven molecules.

T1 sequence (P03952 391-638 limits assumed): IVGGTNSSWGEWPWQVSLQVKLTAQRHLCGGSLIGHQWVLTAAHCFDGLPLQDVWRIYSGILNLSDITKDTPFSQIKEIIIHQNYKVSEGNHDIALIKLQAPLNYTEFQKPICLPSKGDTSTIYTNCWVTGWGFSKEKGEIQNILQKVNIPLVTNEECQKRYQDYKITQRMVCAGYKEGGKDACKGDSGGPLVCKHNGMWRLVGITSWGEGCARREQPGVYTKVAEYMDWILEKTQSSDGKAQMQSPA
T1 sequence (P03952 20-390 partner limits assumed): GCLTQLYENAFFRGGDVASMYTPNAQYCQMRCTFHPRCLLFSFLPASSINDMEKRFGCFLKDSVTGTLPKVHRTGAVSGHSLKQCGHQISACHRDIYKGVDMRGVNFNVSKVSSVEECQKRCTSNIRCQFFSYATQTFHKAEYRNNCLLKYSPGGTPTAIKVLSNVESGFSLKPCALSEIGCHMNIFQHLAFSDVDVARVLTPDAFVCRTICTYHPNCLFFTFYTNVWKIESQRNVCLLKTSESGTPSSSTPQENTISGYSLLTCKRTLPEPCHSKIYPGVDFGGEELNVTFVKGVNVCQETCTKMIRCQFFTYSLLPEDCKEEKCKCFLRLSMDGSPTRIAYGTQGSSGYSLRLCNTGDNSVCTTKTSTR

The test has as its target T1, Human plasma kallikrein (Homo sapiens, UniProt P03952).
T1 construct: purchased Kordia (Leiden, Netherlands) batch HPKA 1303
In words: In vitro inhibition of plasma kallikrein (fluorogenic substrate DPro-Phe-Arg-(Rh110)-γGlu-OH). The class given is biochemical. To be noted: human plasma kallikrein nominally 12 pM, substrate 0.5 μM, 1 hour pre-incubation at room temperature, read after 1 hour (t=60 min). On the procedure: In Vitro Inhibition of Plasma Kallikrein
The fluorogenic substrate DPro-Phe-Arg-(Rh110)-γGlu-OH (where DPro is the amino acid d-proline, Rh110 is the fluorophore rhodamine 110 and γGlu is a […] linked to Rh110 via the gamma-carbonyl function; from Biosyntan, Berlin, Germany), being based on the chromogenic substrate described in Gallimore et al (Thromb Res 25, 293-298, 1982), was dissolved in DMSO at 5 mM and stored at −80° C. All other chemicals were of analytical grade.
Human plasma kallikrein was purchased from Kordia (Leiden, Netherlands, batch HPKA 1303) in lyophilized form.
The protein solution was reconstituted from the lyophilisate by addition of deinonized water. The resulting stock solution comprised the protein at a concentration of 0.17 mg/ml in 4 mM sodium acetate/HCl and 150 mM NaCl at pH 5.3. The stock solution was stored in aliquots at −80° C. Enzymatic reactions were conducted in ‘assay buffer’, comprising 50 mM Hepes/NaOH at pH 7.8, 150 mM NaCl, 1 mM EDTA and 0.05% (w/v) CHAPS.
Both, enzyme and substrate were diluted in assay buffer.
All protein and peptide containing solutions were handled in siliconized tubes (Life Systems Design, Merenschwand, Switzerland). The compound solutions as well as the enzyme and the substrate solutions were transferred to 384-well plates (black Cliniplate; cat. no. 95040020 Labsystems Oy, Finland) by means of a CyBi-Well 96-channel pipettor (CyBio AG, Jena, Germany). Plate measurements were conducted by the means of a Safire2 reader (TECAN, Maennedorf, Switzerland). The Safire2 is a monochomator-based instrument and wavelengths of 485 nm and 535 nm were taken for fluorescence excitation and emission acquisition, respectively. The bandwidths were set to 10 nm in both the excitation and the emission path. The fluorescence in each well was excited by three flashes per measurement.
For the determination of IC50 values, the assays were performed at room temperature in 384-well plates with a total assay volume of 25.25 μl per well.
The test compound was dissolved in 90% (v/v) DMSO/water. For the assays, […] of the 90% (v/v) DMSO/water solution or compound solution were added per well, followed by the addition of 12.5 μl protease solution (protease in assay buffer). The final assay concentration of the human plasma kallikrein was nominally 12 pM, the 11 compound concentrations in the dilution series were in the range form 1 nM to 100 μM. After 1 hour of pre-incubation at room temperature, the reactions were started by the addition of 12.5 μl substrate solution (in assay buffer, final assay concentration was 0.5 μM). After the addition of the substrate solution, the final DMSO concentration in the assay was 0.9% (v/v). The effect of the compound on the enzymatic activity was obtained from the linear part of the progress curves and determined after 1 hour (t=60 min). The IC50 value was calculated from the plot of percentage of inhibition vs. inhibitor concentration by a logistics fit according to the following equation:
where y is the %-inhibition at the inhibitor concentration, x. A1 is the lowest inhibition value, i.e. 0%, and A2 the maximum inhibition value, i.e. 100%. The exponent, p, is the Hill coefficient. The curve fitting was conducted with the non-linear regression routine of the analysis software Origin 7.5SR6 (Origin Lab Corporation).
Molecule `Cc1ccc(CNC(=O)c2cn(Cc3ccc4nc(C)ccc4c3)nn2)c(Cl)n1` [N-((2-chloro-6-methylpyridin-3-yl)methyl)-1-((2-methylquinolin-6-yl)methyl)-1H-1,2,3-triazole-4-carboxamide] displayed an IC50 greater than 30000 nM.

`O=C(NCc1cccc(Cl)c1F)c1cnn(Cc2ccc(Cn3cccn3)cc2)c1` [Example 27, 1-(4-((1H-pyrazol-1-yl)methyl)benzyl)-N-(3-chloro-2-fluorobenzyl)-1H-pyrazole-4-carboxamide] displayed an IC50 of 844 nM.

For `COc1ccnc(C)c1CNC(=O)c1cn(Cc2ccc3nc(C)ccc3c2)nn1` [Example 2, N-((4-methoxy-2-methylpyridin-3-yl)methyl)-1-((2-methylquinolin-6-yl)methyl)-1H-1,2,3-triazole-4-carboxamide], it took 3600 nM to reach half-maximal inhibition (IC50).

On to `O=C(NCc1n[nH]c2ccc(Cl)cc12)c1cnn(Cc2ccc(Cn3ccccc3=O)cc2)c1` [Example 15, N-((5-chloro-1H-indazol-3-yl)methyl)-1-(4-((2-oxopyridin-1(2H)-yl)methyl)benzyl)-1H-pyrazole-4-carboxamide], for which the half-inhibitory concentration (IC50) came out at 0.107 nM. This IC50 lies about 34000-fold lower than the previous one.

Take `COc1ccc(Cn2cc(C(=O)NCc3n[nH]c4ccc(Cl)cc34)cn2)cc1` [Example 11, N-((5-chloro-1H-indazol-3-yl)methyl)-1-(4-methoxybenzyl)-1H-pyrazole-4-carboxamide]: inhibition was half-maximal at 353 nM (IC50).

For the molecule `Cc1ccc2cc(Cn3cc(C(=O)NCc4c(C)cnc(O)c4C)nn3)ccc2n1` [Example 4, N-((2-hydroxy-3,5-dimethylpyridin-4-yl)methyl)-1-((2-methylquinolin-6-yl)methyl)-1H-1,2,3-triazole-4-carboxamide], it took 2420 nM to reach half-maximal inhibition (IC50).

Regarding `Cc1ccc2cc(Cn3cc(C(=O)NCc4c(C)cc(O)nc4C)nn3)ccc2n1` [Example 3, N-((6-hydroxy-2,4-dimethylpyridin-3-yl)methyl)-1-((2-methylquinolin-6-yl)methyl)-1H-1,2,3-triazole-4-carboxamide], it took 573 nM to reach half-maximal inhibition (IC50).
